Assay results: US10214508B2, “Nitrogen-containing heterocyclic compound” (Takeda Pharmaceutical Company Limited, priority 2014, dated 2019)

Target: T1, human M1 receptor (hCHRM1) (Homo sapiens, UniProt P11229)
T1 construct: expressed in transfected cells
T1 sequence (P11229 1-460): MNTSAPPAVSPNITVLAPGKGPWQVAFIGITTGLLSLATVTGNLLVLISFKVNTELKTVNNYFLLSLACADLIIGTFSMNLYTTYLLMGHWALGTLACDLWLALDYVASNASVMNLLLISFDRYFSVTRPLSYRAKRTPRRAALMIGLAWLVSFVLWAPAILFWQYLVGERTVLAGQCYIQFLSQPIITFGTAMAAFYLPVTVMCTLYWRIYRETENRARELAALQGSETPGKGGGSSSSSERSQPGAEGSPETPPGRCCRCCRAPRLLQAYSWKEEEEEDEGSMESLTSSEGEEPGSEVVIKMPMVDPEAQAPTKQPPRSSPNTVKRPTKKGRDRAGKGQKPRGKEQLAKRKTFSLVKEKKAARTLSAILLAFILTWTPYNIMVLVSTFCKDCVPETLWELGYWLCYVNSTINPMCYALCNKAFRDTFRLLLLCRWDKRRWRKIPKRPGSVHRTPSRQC
Test: Measurement of M1 receptor positive allosteric modulator (M1PAM) activity, calcium fluorescence (FLIPRtetra)
Type: cell-based
Settings: 10 μM test compound with acetylcholine at EC20 (final 0.6-0.8 nM); 100% = acetylcholine 1 μM, 0% = DMSO; CHO-K1 cells expressing hCHRM1
How it was run: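 CHO-K1 cells stably expressing hM1 were Fluo-4-loaded; compound added with acetylcholine at EC20 (0.6-0.8 nM final), calcium fluorescence read 1 min on FLIPRtetra. Activity scaled between DMSO (0%) and 1 μM acetylcholine (100%); inflection point of concentration–response reported as IP.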

First: Cc1nc(C(=O)N[C@H]2COCC[C@@H]2O)cc(Cc2ccc(-c3ccn(C)n3)nc2)c1C [Example 86, 1,5-anhydro-2,4-dideoxy-2-(((5,6-dimethyl-4-((6-(1-methyl-1H-pyrazol-3-yl)pyridin-3-yl)methyl)pyridin-2-yl)carbonyl)amino)-L-threo-pentitol]
Second: Cc1ccc(Cc2cc(C(=O)N[C@H]3COCC[C@@H]3O)nc(C)c2Cl)cn1 [Example 111, 1,5-anhydro-2-(((5-chloro-6-methyl-4-((6-methylpyridin-3-yl)methyl)pyridin-2-yl)carbonyl)amino)-2,4-dideoxy-L-threo-pentitol]
The “activity (%) at 10 μM” value of the first is higher: 95% for the first, 90% for the second.

Compared with Cc1cnc(C(=O)NC2CC2)cc1Cc1ccc(-c2ccn(C)n2)cc1 [Example 28, N-cyclopropyl-5-methyl-4-(4-(1-methyl-1H-pyrazol-3-yl)benzyl)pyridine-2-carboxamide], Cc1cnc(C(=O)NC2CCOCC2)cc1Cc1ccc(-c2ccn(C)n2)cc1 [Example 27, 5-methyl-4-(4-(1-methyl-1H-pyrazol-3-yl)benzyl)-N-(tetrahydro-2H-pyran-4-yl)pyridine-2-carboxamide] is higher in “activity (%) at 10 μM” value: 73% for the first, 88% for the second.

Compared with Cc1cnc(C(=O)NC2CCOC2)cc1Cc1ccc(-c2ccn(C)n2)cc1 (stereo not shown) [Example 31, 5-methyl-4-(4-(1-methyl-1H-pyrazol-3-yl)benzyl)-N-(tetrahydrofuran-3-yl)pyridine-2-carboxamide], Cc1cnc(C(=O)NC2CC(F)(F)C2)cc1Cc1ccc(-c2ccn(C)n2)cc1 [Example 30, N-(3,3-difluorocyclobutyl)-5-methyl-4-(4-(1-methyl-1H-pyrazol-3-yl)benzyl)pyridine-2-carboxamide] is higher in “activity (%) at 10 μM” value: 84% for the first, 85% for the second.

First: COC1CCCCC1NC(=O)c1cc(Cc2ccc(-c3ccn(C)n3)cc2)c(C)cn1 (stereo not shown) [Example 18, N-(2-methoxycyclohexyl)-5-methyl-4-(4-(1-methyl-1H-pyrazol-3-yl)benzyl)pyridine-2-carboxamide]
Second: Cn1ccc(-c2ccc(Cc3cc(C(=O)N[C@H]4CCCC[C@@H]4O)ncc3Cl)cc2)n1 [Example 52, 5-chloro-N-((1S,2S)-2-hydroxycyclohexyl)-4-(4-(1-methyl-1H-pyrazol-3-yl)benzyl)pyridine-2-carboxamide]
The “activity (%) at 10 μM” value of the first is higher: 105% for the first, 100% for the second.

Going from CCn1cc(-c2ccc(Cc3cc(C(=O)N[C@H]4CCCC[C@@H]4O)nc(C)c3Cl)cn2)cn1 [Example 108, 5-chloro-4-((6-(1-ethyl-1H-pyrazol-4-yl)pyridin-3-yl)methyl)-N-((1S,2S)-2-hydroxycyclohexyl)-6-methylpyridine-2-carboxamide] to Cc1ccc(Cc2cc(C(=O)N[C@H]3CCCC[C@@H]3O)nc(C)c2Cl)cn1 [Example 110, 5-chloro-N-((1S,2S)-2-hydroxycyclohexyl)-6-methyl-4-((6-methylpyridin-3-yl)methyl)pyridine-2-carboxamide], the “activity (%) at 10 μM” value falls from 114% to 95%.

Compared with O=C(N[C@H]1CCCC[C@@H]1O)c1cc(Cc2ccc(-n3cccn3)cc2)c(Cl)cn1 [Example 6, 5-chloro-N-((1S,2S)-2-hydroxycyclohexyl)-4-(4-(1H-pyrazol-1-yl)benzyl)pyridine-2-carboxamide], O=C(N[C@H]1CCCC[C@@H]1O)c1cc(Cc2ccc(-n3cccn3)cc2)c(OC(F)F)cn1 [Example 94, 5-(difluoromethoxy)-N-((1S,2S)-2-hydroxycyclohexyl)-4-(4-(1H-pyrazol-1-yl)benzyl)pyridine-2-carboxamide] is lower in “activity (%) at 10 μM” value: 108% for the first, 101% for the second.

Compared with Cc1nc(C(=O)N[C@H]2CCCC[C@@H]2O)cc(Cc2ccc(Cl)nc2)c1Cl [Example 103, 5-chloro-4-((6-chloropyridin-3-yl)methyl)-N-((1S,2S)-2-hydroxycyclohexyl)-6-methylpyridine-2-carboxamide], Cc1nc(C(=O)N[C@H]2CCC[C@@H]2O)cc(Cc2ccc(Cl)nc2)c1C [Example 116, 4-((6-chloropyridin-3-yl)methyl)-N-((1S,2S)-2-hydroxycyclopentyl)-5,6-dimethylpyridine-2-carboxamide] is lower in “activity (%) at 10 μM” value: 109% for the first, 104% for the second.

Compared with CCc1cnc(C(=O)N[C@H]2COCC[C@@H]2O)cc1Cc1ccc(-n2cccn2)cc1 [Example 44, 1,5-anhydro-2,4-dideoxy-2-(((5-ethyl-4-(4-(1H-pyrazol-1-yl)benzyl)pyridin-2-yl)carbonyl)amino)-L-threo-pentitol], O=C(N[C@H]1COCC[C@@H]1O)c1cc(Cc2ccc(-n3cccn3)cc2)c(C2CC2)cn1 [Example 47, 1,5-anhydro-2-(((5-cyclopropyl-4-(4-(1H-pyrazol-1-yl)benzyl)pyridin-2-yl)carbonyl)amino)-2,4-dideoxy-L-threo-pentitol] is higher in “activity (%) at 10 μM” value: 92% for the first, 96% for the second.

Compared with Cc1nc(C(=O)N[C@H]2CCCC[C@@H]2O)cc(Cc2ccc(-n3cccn3)cc2)c1C [Example 76, N-((1S,2S)-2-hydroxycyclohexyl)-5,6-dimethyl-4-(4-(1H-pyrazol-1-yl)benzyl)pyridine-2-carboxamide], COc1nc(C(=O)N[C@H]2CCC[C@@H]2O)cc(Cc2ccc(-n3cccn3)cc2)c1C [Example 93, N-((1S,2S)-2-hydroxycyclopentyl)-6-methoxy-5-methyl-4-(4-(1H-pyrazol-1-yl)benzyl)pyridine-2-carboxamide] is higher in “activity (%) at 10 μM” value: 92% for the first, 105% for the second.

First: Cc1cnc(C(=O)N[C@H]2CCC[C@@H]2O)cc1Cc1ccc(-c2ccn(C)n2)cc1F [Example 11, 4-(2-fluoro-4-(1-methyl-1H-pyrazol-3-yl)benzyl)-N-((1S,2S)-2-hydroxycyclopentyl)-5-methylpyridine-2-carboxamide]
Second: O=C(N[C@H]1CCC[C@@H]1O)c1cc(Cc2ccc(-n3cccn3)cc2F)c(Cl)cn1 [Example 53, 5-chloro-4-(2-fluoro-4-(1H-pyrazol-1-yl)benzyl)-N-((1S,2S)-2-hydroxycyclopentyl)pyridine-2-carboxamide]
The “activity (%) at 10 μM” value of the first is higher: 98% for the first, 93% for the second.

Compared with Cc1cnc(C(=O)N[C@H]2c3ccccc3C[C@H]2O)cc1Cc1ccc(-c2ccn(C)n2)cc1 [Example 24, N-((1S,2R)-2-hydroxy-2,3-dihydro-1H-inden-1-yl)-5-methyl-4-(4-(1-methyl-1H-pyrazol-3-yl)benzyl)pyridine-2-carboxamide], Cc1cnc(C(=O)NC2CCC(F)(F)CC2)cc1Cc1ccc(-c2ccn(C)n2)cc1 [Example 33, N-(4,4-difluorocyclohexyl)-5-methyl-4-(4-(1-methyl-1H-pyrazol-3-yl)benzyl)pyridine-2-carboxamide] is lower in “activity (%) at 10 μM” value: 87% for the first, 71% for the second.

Going from COc1ccc(Cc2cc(C(=O)N[C@H]3COCC[C@@H]3O)nc(C)c2Cl)cn1 [Example 106, 1,5-anhydro-2-(((5-chloro-4-((6-methoxypyridin-3-yl)methyl)-6-methylpyridin-2-yl)carbonyl)amino)-2,4-dideoxy-L-threo-pentitol] to Cc1nc(C(=O)N[C@H]2CCCC[C@@H]2O)cc(Cc2ccc(Br)cc2)c1C [Example 77, 4-(4-bromobenzyl)-N-((1S,2S)-2-hydroxycyclohexyl)-5,6-dimethylpyridine-2-carboxamide], the “activity (%) at 10 μM” value falls from 104% to 100%.

O=C(N[C@H]1CCCC[C@@H]1O)c1cc(Cc2ccc(-n3cccn3)cc2F)c(Cl)cn1 [Example 54, 5-chloro-4-(2-fluoro-4-(1H-pyrazol-1-yl)benzyl)-N-((1S,2S)-2-hydroxycyclohexyl)pyridine-2-carboxamide] was tested, and the “activity (%) at 10 μM” value was 99%.
